# From paper PMC10504751, “Chalcone/1,3,4-Oxadiazole/Benzimidazole hybrids as novel anti-proliferative agents inducing apoptosis and inhibiting EGFR & BRAFV^600E” (BMC Chemistry, 2023)
# Read-outs that look alike come from different tables or passages of the source.
# Assays:
# [1] = MTT cell viability assay in normal cells; type: cell-based; settings: human, MCF-10A normal mammary epithelial cells
# Protocol: To check the safety of prepared compounds and evaluate their selectivity towards tumor cells over normal ones, the toxicity of compounds 7a-x were evaluated by 3-(4,5-Dimethylthiazole-2-yl)-2,5-diphenyltetrazol (MTT) assay on the normal human mammary epithelial cell line (MCF-10 A). The human mammary epithelial cell lines were incubated for four days with a concentration of 50 µM of compounds 7a-x.
# MTT assay was done to determine the effect of the synthesized compounds on the viability of mammary epithelial cells (MCF-10 A). Compounds 7a-x were incubated with MCF-10 A cells for 4 days at 50 µM concentration, and the viability of cells was determined. See Appendix A.
# MTT assay was carried out to study the effect of compounds on mammary epithelial cells (MCF-10A).^7, ^8 The medium in which cells were propagated contained Dulbecco's modified Eagle's medium (DMEM)/ Ham's F-12 medium (1:1) supplemented with epidermal growth factor (20 ng/mL), hydrocortisone (500 ng/mL), insulin (10 μg/mL), 2 mM glutamine and 10% foetal calf serum. After every 2-3 days, the cells were passaged using trypsin ethylenediamine tetra acetic acid (EDTA). The cells were seeded at a density of 10^4 cells mL^-1 in flat-bottomed culture plates containing 96 wells each. After 24 h, medium was removed from the plates and the compounds in (in 0.1% DMSO) were added (in 200 μL medium to yield a final concentration of 0.1% v/v) to the wells of plates. A single compound was designated with four wells followed by incubation of plates for 96h at 37°C. After incubation, medium was removed completely from the plates followed by addition of MTT (0.4 mg/mL in medium) to each well and subsequent incubation of plates for 3h. MTT (along with the medium) was removed and DMSO (150μL) was added to each well of the culture plates, followed by vortexing and subsequent measurement of absorbance (at 540 nm) using microplate reader.
# K-562 = test: NCI one-dose SRB anti-proliferative screen; type: cell-based, human; settings: for inhibition at 10 µM: Homo sapiens, K562, read-out: Cell growth inhibition %
# Protocol: (§1) The twenty-four synthesized compounds were submitted to the National Cancer Institute (NCI), USA. Eighteen hybrids 7a-h, 7k-r, 7u, and 7v were selected by NCI for one-dose assessment of their anti-proliferative activities at 10 µM dose by Sulforhodamine B colorimetric assay. The assessment was performed in 60 cell lines derived from nine tumor subpanels, comprising lung, leukemia, melanoma, colon, renal, CNS, prostate, breast, and ovarian cancer cell lines.
# (§2) The methodology of the NCI anti-proliferative screening has been described in details elsewhere (http://www.dtp.nci.nih.gov).
# RXF 393 = test: NCI one-dose SRB anti-proliferative screen; type: cell-based, human; settings: Homo sapiens, read-out: Cell growth inhibition %
# Protocol: as §1, §2
# MOLT-4 = test: NCI one-dose SRB anti-proliferative screen; type: cell-based, human; settings: for inhibition at 10 µM: Homo sapiens, read-out: Cell growth inhibition %
# Protocol: as §1, §2
# HCT-116 = test: NCI one-dose SRB anti-proliferative screen; type: cell-based, human; settings: for inhibition at 10 µM: Homo sapiens, read-out: Cell growth inhibition %
# Protocol: as §1, §2
# T-47D = test: NCI one-dose SRB anti-proliferative screen; type: cell-based, human; settings: for inhibition at 10 µM: Homo sapiens, T47D, read-out: Cell growth inhibition %
# Protocol: as §1, §2
# UACC-62 = test: NCI one-dose SRB anti-proliferative screen; type: cell-based; settings: Homo sapiens, read-out: Cell growth inhibition %
# Protocol: as §1, §2
# HOP-62 = test: NCI one-dose SRB anti-proliferative screen; type: cell-based; settings: Homo sapiens, read-out: Cell growth inhibition %
# Protocol: as §1, §2
# EKVX = test: NCI one-dose SRB anti-proliferative screen; type: cell-based; settings: Homo sapiens, read-out: Cell growth inhibition %
# Protocol: as §1, §2
# A-549 = test: Propidium iodide anti-proliferative assay; type: cell-based; settings: Homo sapiens, A549; 48 h incubation; read-out: IC50 ± SEM A-549
# Protocol: (§3) The propidium iodide (PI) tests^31, 32 were further used for assessment of the IC50 of all synthesized compounds and compared to Doxorubicin as a positive control against four cancer cell lines; pancreatic cancer cell line (Panc-1), epithelial line cancer cell (A-549), breast cancer cell line (MCF-7), and colon cancer cell line (HT-29).
# (§4) Using the propidium iodide fluorescence assay with doxorubicin as the reference drug, IC50 of the 24 compounds 7a-x, was carried out according to a previously reported procedure^31, 32 against a panel of four human cancer cell lines; epithelial cancer cell line (A-549), breast cancer cell line (MCF-7), colon cancer cell line (HT-29) and pancreas cancer cell line (Panc-1). Compounds 7a-x were incubated with cancer cells for 2 days at different concentrations. See Appendix A.
# (§5) To explore the antiproliferative potential of compounds propidium iodide fluorescence assay was performed using different cell lines (melanoma cancer cell line LOX-IMVI, pancreatic cancer cell line (Panc-1), epithelial line cancer cell (A-549), breast cancer cell line (MCF-7), and colon cancer cell line (HT-29). To calculate the total nuclear DNA, a fluorescent dye (propidium iodide, PI) is used which can attach to the DNA,^9,^10 thus offering a quick and precise technique. PI cannot pass through the cell membrane and its signal intensity can be considered as directly proportional to the quantity of cellular DNA. Cells whose cell membranes are damaged or have changed permeability are counted as dead ones. The assay was performed by seeding the cells of different cancer cell lines at a density of 3000-7500 cells/well (in 200µl medium) in culture plates followed by incubation for 24h at 37 °C in humidified 5% CO2/95% air atmospheric conditions. The medium was removed; the compounds were added to the plates at 10 µM concentrations (in 0.1% DMSO) in triplicates, followed by incubation for 48 h. DMSO (0.1%) was used as control. After incubation, medium was removed followed by the addition of PI (25 µl, 50µg/mL in water/medium) to each well of the plates. At -80 °C, the plates were allowed to freeze for 24 h, followed by thawing at 25 °C. A fluorometer (Polar-Star BMG Tech) was used to record the readings at excitation and emission wavelengths of 530 and 620 nm for each well. The percentage cytotoxicity of compounds was calculated using the following formula:
# (§6) Where ATC= Absorbance of treated cells and AC= Absorbance of control. […]
# HT-29 = test: Propidium iodide anti-proliferative assay; type: cell-based; settings: Homo sapiens, 48 h incubation, read-out: IC50 ± SEM HT-29
# Protocol: as §3, §4, §5, §6
# MCF-7 = test: Propidium iodide anti-proliferative assay; type: cell-based; settings: Homo sapiens, MCF7; 48 h incubation; read-out: IC50 ± SEM MCF-7
# Protocol: as §3, §4, §5, §6
# Panc-1 = test: Propidium iodide anti-proliferative assay; type: cell-based; settings: Homo sapiens, 48 h incubation, read-out: IC50 ± SEM Panc-1
# Protocol: as §3, §4, §5, §6
# [2] = RXF 393, Renal cancer, NCI one dose
# [3] = HCT-116, Colon cancer, NCI one dose
# [4] = T-47D, Breast cancer, NCI one dose
# [5] = UACC-62, Melanoma, NCI one dose
# [6] = HOP-62, Non-Small Cell Lung Cancer, NCI one dose
# [7] = EKVX, Non-Small Cell Lung Cancer, NCI one dose
SMILES,"viability at 96 h, 50 µM [1]",melting point,"inhibition at 10 µM (K-562; K-562, Leukemia, NCI one dose)",inhibition at 10 µM (RXF 393; [2]),"inhibition at 10 µM (MOLT-4; MOLT-4, Leukemia, NCI one dose)",inhibition at 10 µM (HCT-116; [3]),inhibition at 10 µM (T-47D; [4]),inhibition at 10 µM (UACC-62; [5]),inhibition at 10 µM (HOP-62; [6]),inhibition at 10 µM (EKVX; [7]),IC50 (A-549),IC50 (HT-29),IC50 (MCF-7),IC50 (Panc-1),further results
"O=C(CSc1nnc(-c2ccc3[nH]c(-c4ccccc4)nc3c2)o1)Nc1ccc(C(=O)/C=C/c2ccccc2)cc1 [Compound 7a, 2-{5-[2-Phenyl-1 H-benzo[d]imidazol-5-yl]-1,3,4-oxadiazol-2-ylthio}-N-{4-[(E)-3-phenylacryloyl]phenyl}acetamide]",91%,273 to 275 °C,0%,0%,6.84%,3.03%,1.45%,2.91%,0%,0%,9900 ± 1100 nM,11200 ± 1400 nM,9200 ± 1100 nM,10400 ± 1300 nM,
"O=C(CSc1nnc(-c2ccc3[nH]c(-c4ccccc4)nc3c2)o1)Nc1ccc(C(=O)/C=C/c2ccc(Cl)cc2)cc1 [Compound 7b, 2-{5-[2-Phenyl-1 H-benzo[d]imidazol-5-yl]-1,3,4-oxadiazol-2-ylthio}-N-{4-[(E)-3-(4-chlorophenyl)acryloyl]phenyl}acetamide]",88%,263 to 264 °C,0%,0%,6.55%,8.66%,12.3%,11.6%,0%,0%,8200 ± 900 nM,9100 ± 1100 nM,7900 ± 800 nM,8400 ± 1000 nM,
"COc1ccc(-c2nc3cc(-c4nnc(SCC(=O)Nc5ccc(C(=O)/C=C/c6ccccc6)cc5)o4)ccc3[nH]2)cc1 [Compound 7k, 2-{5-[2-(4-Methoxyphenyl)-1 H-benzo[d]imidazol-5-yl]-1,3,4-oxadiazol-2-ylthio}-N-{4-[(E)-3-phenylacryloyl]phenyl}acetamide]",91%,,44.6%,37.9%,53%,41.3%,58%,20.1%,0%,13.9%,1200 ± 200 nM,1400 ± 200 nM,950 ± 80 nM,1300 ± 200 nM,"Growth Percent (K-562; K-562 (Leukemia), 10 µM one dose): 55%; Growth Percent (MOLT-4; MOLT-4 (Leukemia), 10 µM one dose): 47%; Growth Percent (HCT-116; HCT-116 (Colon Cancer), 10 µM one dose): 58.69%; Growth Percent (T-47D; T-47D (Breast Cancer), 10 µM one dose): 42.05%"
"COc1ccc(-c2nc3cc(-c4nnc(SCC(=O)Nc5ccc(C(=O)/C=C/c6ccc(Cl)cc6)cc5)o4)ccc3[nH]2)cc1 [Compound 7l, 2-{5-[2-(4-Methoxyphenyl)-1 H-benzo[d]imidazol-5-yl]-1,3,4-oxadiazol-2-ylthio}-N-{4-[(E)-3-(4-chlorophenyl)acryloyl]phenyl}acetamide]",89%,,6.12%,1.82%,11.7%,0%,7.23%,6.01%,0.53%,0.26%,1450 ± 300 nM,1650 ± 300 nM,1100 ± 100 nM,1500 ± 300 nM,
"COc1ccc(/C=C/C(=O)c2ccc(NC(=O)CSc3nnc(-c4ccc5[nH]c(-c6ccc(OC)cc6)nc5c4)o3)cc2)cc1 [Compound 7m, 2-{5-[2-(4-Methoxyphenyl)-1 H-benzo[d]imidazol-5-yl]-1,3,4-oxadiazol-2-ylthio}-N-{4-[(E)-3-(4-methoxyphenyl)acryloyl]phenyl}acetamide]",94%,,28.7%,0%,36.9%,0%,31.1%,14.9%,4.92%,9.73%,1400 ± 500 nM,1850 ± 400 nM,1200 ± 80 nM,1500 ± 200 nM,
"COc1cc(-c2nc3cc(-c4nnc(SCC(=O)Nc5ccc(C(=O)/C=C/c6ccc(Cl)cc6)cc5)o4)ccc3[nH]2)cc(OC)c1OC [Compound 7v, 2-{5-[2-(3,4,5-Trimethoxyphenyl)-1 H-benzo[d]imidazol-5-yl]-1,3,4-oxadiazol-2-ylthio}-N-{4-[(E)-3-(4-chlorophenyl)acryloyl]phenyl}acetamide]",87%,,,,,,,,,,2450 ± 500 nM,2900 ± 500 nM,2200 ± 80 nM,2600 ± 200 nM,"inhibition at 10 µM (K-562; K-562 (Leukemia), NCI one dose 10 µM): 16.2%; inhibition at 10 µM (RXF 393; RXF 393 (Renal Cancer), NCI one dose 10 µM): 0%; inhibition at 10 µM (MOLT-4; MOLT-4 (Leukemia), NCI one dose 10 µM): 20.6%; inhibition at 10 µM (HCT-116; HCT-116 (Colon Cancer), NCI one dose 10 µM): 18.5%; inhibition at 10 µM (T-47D; T-47D (Breast Cancer), NCI one dose 10 µM): 19.6%; inhibition at 10 µM (UACC-62; UACC-62 (Melanoma), NCI one dose 10 µM): 16%; inhibition at 10 µM (HOP-62; HOP-62 (Non-Small Cell Lung Cancer), NCI one dose 10 µM): 0%; inhibition at 10 µM (EKVX; EKVX (Non-Small Cell Lung Cancer), NCI one dose 10 µM): 0.51%"
